From patent publication US20110218188A1, “SUBSTITUTED (PYRIDYL)-AZINYLAMINE DERIVATIVES AS FUNGICIDES” (priority 2008, published 2011) come the findings set out here.

Marks after values point to notes of the source that are not given here.

One data set is described as follows: Measurement of logP values by HPLC on reversed phase columns (EEC directive 79/831 Annex V.A8). The format is physicochemical. The following applies: pH 2.7.
The term logP denotes the decadic logarithm of the partition coefficient of the neutral form, usually between octanol and water. `CCOC1CCC(NC(=O)c2cc(-c3ncnc(Nc4cccc(Cl)c4)n3)ccn2)CC1` (stereo not drawn) [Example B97] returned a lipophilicity (logP) of 4.39.
The compound `COC(=O)c1cc(-c2ncnc(Nc3cccc(Cl)c3)n2)ccn1` [Example B25] registered a log partition coefficient (logP) of 2.79.
Still for that read-out and setting: the same measure for `C=CCN(CC=C)C(=O)c1cc(-c2ncnc(Nc3cccc(Cl)c3)n2)ccn1` [Example B143]: 3.67; for `CCN(C)C(=O)c1cc(-c2ncnc(Nc3cccc(SC)c3)n2)ccn1` [Example B222]: 2.6.
With `CN(CC(F)F)C(=O)c1cc(-c2ncnc(Nc3cccc(OC(F)F)c3)n2)ccn1` [Example B370], the logP is 2.86.
Broadly, the chromatographic logP is lipophilicity estimated from chromatographic retention. Lower therefore signals a more hydrophilic compound. As for `CC(=O)c1cc(-c2ncnc(Nc3cccc(Cl)c3)n2)ccn1` [Example B26, 1-(4-{4-[(3-chlorophenyl)amino]-1,3,5-triazin-2-yl}pyridin-2-yl)ethanone], the chromatographic logP was found to be 3.32.
`CCC(=NOCCN(C)C)c1cc(-c2ncnc(Nc3cccc(Cl)c3)n2)ccn1` (mixture of isomers) [B49]: the log partition coefficient (logP) was 2.06.
The compound `COC(=O)c1cc(-c2ncnc(Nc3ccnc(Cl)c3)n2)ccn1` [Example C25] showed a logP of 2.02.
The compound `CCN(C)C(=O)c1cc(-c2ncnc(Nc3cccc(C(C)C)c3)n2)ccn1` [Example B258] gave a lipophilicity (logP) of 3.11.
The same measure, in the same setting: in the case of `O=C(NCCC(F)(F)F)c1cc(-c2ncnc(Nc3cccc(Cl)c3)n2)ccn1` [B121] it was 3.73; in that of `CCN(C)C(=S)c1cc(-c2ncnc(Nc3cccc(SC)c3)n2)ccn1` [Example B223], 3.17; in that of `C=CCN(C)C(=O)c1cc(-c2ccnc(Nc3ccnc(Cl)c3)n2)ccn1` [Example A25], 2.13.
Compound `CCN(CC)C(=O)c1cc(-c2ncnc(Nc3ccc(F)cc3)n2)ccn1` [Example B15] yielded a logP of 2.6.
On to `CCC1CCCCN1C(=O)c1cc(-c2ncnc(Nc3cccc(Cl)c3)n2)ccn1` (stereo not drawn) [Example B139], for which the logP came out at 3.8.
`O=C(O)c1cc(-c2ncnc(Nc3cccc(Cl)c3)n2)ccn1` [B404] gave a log partition coefficient (logP) of 2.11.
On to `CCCN(CC1CC1)C(=O)c1cc(-c2ncnc(Nc3cccc(Cl)c3)n2)ccn1` [Example B159], for which the lipophilicity (logP) came to 3.94.
Consider `COCC(COC)NC(=O)c1cc(-c2ncnc(Nc3cccc(Cl)c3)n2)ccn1` [B86], for which the logP is reported as 3.39.
`CCN(C)C(=O)c1cc(-c2ncnc(Nc3cc(F)ccc3F)n2)ccn1` [Example B358] showed a lipophilicity (logP) of 2.39.
Turning to `CCN(CC)C(=O)c1cc(-c2ncnc(Nc3ccc(F)c(Cl)c3)n2)ccn1` [Example B202], the lipophilicity (logP) worked out at 3.13.
In turn, `CCN(C)C(=S)c1cc(-c2ncnc(Nc3cccc(S(F)(F)(F)(F)F)c3)n2)ccn1` [Example B253, N-ethyl-N-methyl-4-(4-{[3-(pentafluoro-lambda^6-sulfanyl)phenyl]amino}-1,3,5-triazin-2-yl)pyridine-2-carbothioamide] showed a chromatographic logP of 3.57.
`CCN(C)C(=O)c1cc(-c2ncnc(Nc3cccc(OC(F)(F)F)c3)n2)ccn1` [Example B268] returned a logP of 3.
Same read-out and setting: in the case of `NC(=O)c1cc(-c2ncnc(Nc3cccc(F)c3)n2)ccn1` [B324] it was 2.09; in that of `NC(=S)c1cc(-c2ncnc(Nc3cccc(F)c3)n2)ccn1` [B321], 2.57.
Compound `CCN(C)C(=O)c1cc(-c2ncnc(Nc3ccc(F)cc3)n2)ccn1` [Example B20] came in with a lipophilicity (logP) of 2.28.
`CCC(=NOCC1CC1)c1cc(-c2ncnc(Nc3cccc(Cl)c3)n2)ccn1` (mixture of isomers) [Example B54] returned a log partition coefficient (logP) of 5.49.
The compound `CCN(CC)C(=O)c1cc(-c2ncnc(Nc3ccc(Cl)c(C(F)F)c3)n2)ccn1` [Example B352] came in with a logP of 3.23.
Compound `CCN(CC)C(=O)c1cc(-c2ccnc(Nc3ccnc(Cl)c3)n2)ccn1` [Example A27] gave a log partition coefficient (logP) of 2.17.
Still for that read-out and setting: in the case of `O=C(c1cc(-c2ccnc(Nc3ccnc(Cl)c3)n2)ccn1)N1CCCCC1` [Example A5] it was 2.23.
Take `CN(CCC#N)C(=O)c1cc(-c2ncnc(Nc3ccc(F)c(F)c3)n2)ccn1` [Example B384]: the lipophilicity (logP) is on record as 2.35.
In turn, `COC(=O)c1cc(-c2ncnc(Nc3ccsc3)n2)ccn1` [Example C24, methyl 4-[4-(3-thienylamino)-1,3,5-triazin-2-yl]pyridine-2-carboxylate] returned a chromatographic logP of 2.23.
Consider `CCC(C)NC(=O)c1cc(-c2ncnc(Nc3ccc(F)c(Cl)c3)n2)ccn1` (stereo not drawn) [Example B197], for which the logP came to 4.16.
The same measure, in the same setting: in the case of `O=C(NCCCN1CCCCCC1=O)c1cc(Nc2nccc(-c3ccnc(C(=O)NCCCN4CCCCCC4=O)c3)n2)ccn1` [Example A21] it was 2.33; in that of `COC(=O)NN=C(C)c1cc(-c2ncnc(Nc3cccc(Cl)c3)n2)ccn1` [B83], 2.86; in that of `CCCN(C)C(=O)c1cc(-c2ncnc(Nc3cccc(NC(C)=O)c3)n2)ccn1` [Example B305], 1.87.
The same measure, in the same setting: the same measure for `Cc1ccc(Nc2ncnc(-c3ccnc(C(=O)N(C)CCC#N)c3)n2)cc1Cl` [Example B366]: 2.8.
Compound `CN(CC1CC1)C(=S)c1cc(-c2ncnc(Nc3cccc(F)c3)n2)ccn1` [Example B12] gave a log partition coefficient (logP) of 3.42.
The compound `CCOc1cccc(Nc2ncnc(-c3ccnc(C(=O)N(C)CC)c3)n2)c1` [Example B254] yielded a logP of 2.6.
Compound `CN(C(=O)c1cc(-c2ncnc(Nc3cccc(Cl)c3)n2)ccn1)C1CCCCC1` [Example B144] came in with a logP of 3.89.
Regarding `CCN(CC)C(=O)c1cc(-c2ncnc(Nc3cccc(OC)c3)n2)ccn1` [Example B273], the logP is on record as 2.59.
In the case of `CCN(C)C(=S)c1cc(-c2ncnc(Nc3ccsc3)n2)ccn1` [Example C23], the log partition coefficient (logP) is 2.68.
Still for that read-out and setting: in the case of `CCC(=NOCc1ccc(Cl)cc1)c1cc(-c2ncnc(Nc3cccc(Cl)c3)n2)ccn1` (mixture of isomers) [B70] it was 6.22; in that of `O=C(NCCCN1CCCCCC1=O)c1cc(-c2ncnc(Nc3ccc(F)c(Cl)c3)n2)ccn1` [Example B194], 3.19; in that of `CC(C)N(C)C(=O)c1cc(-c2ncnc(Nc3cccc(C(F)F)c3)n2)ccn1` [Example B290], 2.65.
As to `CCC(=O)c1cc(-c2ncnc(Nc3cccc(Cl)c3)n2)ccn1` [Example B45], the lipophilicity (logP) is listed as 3.79.
Regarding `CCCN(C)C(=O)c1cc(-c2ncnc(Nc3ccc(F)c(Cl)c3)n2)ccn1` [Example B203], the lipophilicity (logP) worked out at 3.13.
The compound `CC(=NO)c1cc(-c2ncnc(Nc3cccc(Cl)c3)n2)ccn1` (mixture of isomers) [Example B74] showed a log partition coefficient (logP) of 2.8.
Compound `CN(CCC#N)C(=O)c1cc(-c2ncnc(Nc3cccc(OC(F)F)c3)n2)ccn1` [Example B297] gave a logP of 2.37.
Turning to `CN(CC1CC1)C(=O)c1cc(-c2ncnc(Nc3ccccc3)n2)ccn1` [Example B313], the lipophilicity (logP) was 2.65.
In turn, `CC(C)N(C)C(=O)c1cc(-c2ncnc(Nc3ccccc3)n2)ccn1` [Example B317] returned a logP of 2.45.
Consider `COCC(=O)N(c1ccccc1)c1ncnc(-c2ccnc(C(=O)N(C)CC3CC3)c2)n1` [Example B401], for which the logP is listed as 2.37.
As for `CC(=NOCCN(C)C)c1cc(-c2ncnc(Nc3cccc(Cl)c3)n2)ccn1` (mixture of isomers) [B32], the logP worked out at 1.99.
The compound `CCN(CC)C(=O)c1cc(-c2ncnc(Nc3ccsc3)n2)ccn1` [Example C13] registered a lipophilicity (logP) of 2.44.
`CCCN(CCO)C(=O)c1cc(-c2ccnc(Nc3ccnc(Cl)c3)n2)ccn1` [Example A10] registered a log partition coefficient (logP) of 1.84.
`COCCN(C)C(=O)c1cc(-c2ncnc(Nc3ccc(F)cc3)n2)ccn1` [Example B22] gave a logP of 3.92.
The compound `CN(CC1CC1)C(=O)c1cc(-c2ncnc(Nc3ccc(Cl)c(C(F)F)c3)n2)ccn1` [Example B390] showed a lipophilicity (logP) of 3.31.
For `CC(=NOCc1c(Cl)cccc1Cl)c1cc(-c2ncnc(Nc3cccc(Cl)c3)n2)ccn1` (mixture of isomers) [B39], the logP amounted to 6.02.
Same read-out and setting: the same measure for `CN(C)C(=O)c1cc(-c2ncnc(Nc3cccc(OC(F)F)c3)n2)ccn1` [Example B300]: 2.25.
Consider `CC(=NOCC(F)(F)F)c1cc(-c2ncnc(Nc3cccc(Cl)c3)n2)ccn1` (mixture of isomers) [B73], for which the lipophilicity (logP) came out at 4.58.
As to `CCCN(C)C(=O)c1cc(-c2ncnc(Nc3ccc(C)c(Cl)c3)n2)ccn1` [Example B374], the logP came out at 3.42.
Consider `CC(C)CN(C)C(=O)c1cc(-c2ncnc(Nc3cccc(C(F)F)c3)n2)ccn1` [Example B289], for which the logP came to 3.04.
On the same count and under the same terms, the same measure for `CCCN(C)C(=O)c1cc(-c2ncnc(Nc3cccc(F)c3)n2)ccn1` [Example B3]: 2.72; for `O=C(NCC1CCCO1)c1cc(-c2ncnc(Nc3cccc(Cl)c3)n2)ccn1` (stereo not drawn) [Example B33]: 3.09; for `CCN(CC)C(=S)c1cc(-c2ncnc(Nc3cccc(C(F)(F)F)c3)n2)ccn1` [Example B326]: 3.78.
In turn, `CN(CC1CC1)C(=O)c1cc(-c2ncnc(Nc3cccc(Cl)c3)n2)ccn1` [Example B133] came in with a logP of 3.15.
`CSc1cccc(Nc2ncnc(-c3ccnc(C(=O)N(C)CC(F)F)c3)n2)c1` [Example B372] yielded a lipophilicity (logP) of 2.96.
The compound `CCN(CC)C(=O)c1cc(-c2ncnc(Nc3ccc(F)c(F)c3)n2)ccn1` [B351] displayed a logP of 2.88.
With `COC(=O)c1cc(-c2ncnc(Nc3cccc(C(F)F)c3)n2)ccn1` [B406], the logP is on record as 2.55.
`CC(C)N(C)C(=O)c1cc(-c2ncnc(Nc3ccsc3)n2)ccn1` [Example C20] yielded a logP of 2.37.
In turn, `CCN(C)C(=O)c1cc(-c2ncnc(Nc3ccccc3)n2)ccn1` [Example B316] yielded a lipophilicity (logP) of 2.2.
Same read-out and setting: in the case of `CSc1cccc(Nc2ncnc(-c3ccnc(C(=O)NC4CC4)c3)n2)c1` [B213] it was 3.15.

The same data set, now with this note: pH 7.8.
Take `COc1ccc(Nc2ncnc(-c3ccnc(C(=O)N4CCCCC4)c3)n2)cn1` [Example C2, (4-{4-[(6-methoxypyridin-3-yl)amino]-1,3,5-triazin-2-yl}pyridin-2-yl)(piperidin-1-yl)methanone]: the chromatographic logP came out at 2.14.
For the compound `CCCN(C)C(=O)c1cc(-c2ncnc(Nc3ccc(OC)nc3)n2)ccn1` [Example C5], the log partition coefficient (logP) was 2.11^[c].
